Measured values: patent US20090306050A1, “TREATMENT AND PREVENTION OF DEPRESSION WITH PAIN, DEPRESSION SECONDARY TO PAIN, AND OF NEUROPATHIC PAIN” (priority 2006, published 2009)

Columns and labels:
[1] = system: ECG interval; settings: rats infused with the antidepressant; cited from earlier work
[2] = system: neuropathic pain; settings: in vivo; cited from earlier work
[3] = fatal poisoning/overdose, Scotland, England and Wales; cited from earlier work
[4] = system: severe neuropathic pain; assay: Example 2: diabetic clinic patients with severe neuropathic pain; type: in vivo
Description: Four patients at a diabetic clinic present with severe neuropathic pain. Conventional analgesics are of no benefit.

[5] = molecular target: D2 receptor (Homo sapiens, UniProt P14416); assay: activity at the dopamine D2 receptor
[6] = sedation; settings: in vivo
[7] = system: NA and 5HT reuptake; assay: NA versus 5HT reuptake selectivity from comparative Ki's (Bolden-Watson and Richelson); type: biochemical
Description: There are a number of ways in which the ratio of NA to 5HT reuptake in antidepressant molecules may be measured. The selectivity a drug for various receptors may be compared by use of comparative Ki's and not comparative IC 50 values. (Bolden-Watson, C and Richelson, E., Life Sci, (52), 1993, 1023-1029), which is hereby incorporated by reference.

[8] = system: major depression with aches and pains; assay: Example 1: patients with major depression and multiple aches and pains; type: in vivo; settings: three patients, commenced 70 mg twice daily, final 140mg to 280mg daily
Description: Three patients who fulfilled criteria for major depression present with multiple aches and pains for which there is no obvious physical cause. […] The final dose of medication ranges from 140mg daily to 280mg daily.

[9] = system: serotonin synthesis; assay: serotonin synthesis in the brain; settings: in vivo

D2 receptor, sequence (P14416 whole entry): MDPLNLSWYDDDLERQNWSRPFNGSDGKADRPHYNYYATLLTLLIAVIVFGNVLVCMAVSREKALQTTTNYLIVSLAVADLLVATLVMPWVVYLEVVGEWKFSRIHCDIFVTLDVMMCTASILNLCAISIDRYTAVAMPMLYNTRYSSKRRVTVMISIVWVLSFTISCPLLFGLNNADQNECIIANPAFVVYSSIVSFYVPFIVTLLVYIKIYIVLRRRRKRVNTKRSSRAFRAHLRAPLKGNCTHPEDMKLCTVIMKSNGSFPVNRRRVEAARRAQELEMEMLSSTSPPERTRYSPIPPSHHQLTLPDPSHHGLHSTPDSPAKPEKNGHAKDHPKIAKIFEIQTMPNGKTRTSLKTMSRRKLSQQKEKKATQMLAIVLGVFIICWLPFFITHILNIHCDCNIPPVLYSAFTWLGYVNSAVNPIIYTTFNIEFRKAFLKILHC

SMILES: CN(C)CCC=C1c2ccccc2CCc2ccccc21 [amitriptyline]
- prolongation of the ECG interval [1]: prolong the ECG interval

SMILES: CC(NC(C)(C)C)C(=O)c1cccc(Cl)c1 (centres unmarked) [buproprion]
- effectiveness in neuropathic pain [2]: has not been found to be effective

SMILES: CNCCCN1c2ccccc2CCc2ccccc21 [desipramine]
- prolongation of the ECG interval [1]: prolong the ECG interval
- fatalities per million prescriptions [3]: 200.9 per million prescriptions

SMILES: CNCC[C@H](Oc1cccc2ccccc12)c1cccs1 [duloxetine]
- response of neuropathic pain to prior treatment ([4]; four diabetic patients, prescribed before lofepramine): failed to respond

SMILES: CN(C)CCCN1c2ccccc2CCc2ccccc21 [imipramine]
- prolongation of the ECG interval [1]: prolong the ECG interval

SMILES: CN(CCCN1c2ccccc2CCc2ccccc21)CC(=O)c1ccc(Cl)cc1 [lofepramine]
- activity at the D2 receptor [5]: potent activity
- induction of sedation [6]: does not induce sedation
- NA:5HT ratio relative to desipramine [7]: about four times that of desipramine
- NE: 5-HT ratio relative to milnacipran [7]: higher than that of milnacipran
- relief of neuropathic pain ([4]; four diabetic patients, 70 mg tds, after failure of analgesics and duloxetine): dramatic relief of pain in 3 of the 4 cases
- response after escalation of the dose ([4]; patient 4, escalated dose): results in improvement
- improvement in symptoms including pain [8]: All three show improvement in all symptoms including pain within four weeks
- prolongation of the ECG interval [1]: does not
- fatalities per million prescriptions [3]: 1.3 per million prescriptions
- effect on serotonin synthesis in the brain [9]: up-regulate serotonin synthesis in the brain

SMILES: COc1ccc(C(CN(C)C)C2(O)CCCCC2)cc1 (centres unmarked) [venlafaxine]
- fatalities per million prescriptions [3]: 13.2 per million prescriptions
